This is an account of results in PMC6052416, “Selective inhibition of carbonic anhydrase-IX by sulphonamide derivatives induces pH and reactive oxygen species-mediated apoptosis in cervical cancer HeLa cells” (Journal of Enzyme Inhibition and Medicinal Chemistry, 2018).

The structures appear in SMILES notation. Like-named read-outs stand apart in the source and are kept apart here.

Experiment [1] has as its system HT-29 (colon adenoma cancer). The experiment in a line: WST-1 cytotoxicity, HT-29. Type of experiment: cell-based, human. The protocol: (§1) Cancer and normal cell lines were purchased from ATCC and stored in liquid nitrogen. HT-29 (colon adenoma cancer), HeLa (cervix adenoma cancer cell), MDA-MB-231 (breast adenoma cancer cell), HEK-293 (embryonic kidney epithelial cell) and PNT-1A (normal prostate cells) cell lines were incubated in DMEM: F-12 and RPMI-1640, including 10% foetal bovine serum (FBS), 100 µg/mL streptomycin/100 IU/mL penicillin, at 37 °C in an incubator containing 5% CO2, 95% air in a humid atmosphere.
(§2) The cytotoxic effects of the substances were evaluated with WST-1 kits (Roche, Germany) in accordance with the manufacturer’s protocols. The cells were planted in 96-well plates (10^4 cells in each well). After incubation for 24 h, the media were discarded and the substances and 5-Fu as the control drug, at doses of 0, 2.5, 5, 10, 25, 50, 100 and 200 µM, were incubated for 24, 48 and 72 h. WST-1 reactive of 10 µL was added to all wells. Following 4-h incubation, the measurements were taken on a plate reader (Spectramax M5) at wavelengths of 450 and 630 nm. Graphs were then created and the IC50 value of each substance was calculated.
(Tetrazolium assays rely on reduction of a dye to a coloured formazan, in cell work by metabolically active cells.)

The test system of experiment [2] is MDA-MB-231 (breast adenoma cancer cell). Kind of experiment: WST-1 cytotoxicity, MDA-MB-231. Type of experiment: cell-based, human. The procedure: as §1, §2
Experiment [3] deals with HEK-293 (embryonic kidney epithelial cell). Kind of experiment: WST-1 cytotoxicity, HEK-293. Type of experiment: cell-based. The note with it: normal cell. The procedure:
as §1, §2

In another experiment the target is hCA IX. The arrangement: method as in PMID 25913118, PMID 26803577. The note with it: cited from earlier work.
Experiment [4] relates to HeLa (cervix adenoma cancer cell). Kind of experiment: WST-1 cytotoxicity, HeLa. In kind it is cell-based, human. The protocol:
as §1, §2

Another experiment concerns the target hCA XII. More on the design: method as in PMID 25913118, PMID 26803577. The conditions noted are these: cited from earlier work.
Experiment [5] deals with PNT-1A (normal prostate cells). The experiment in a line: WST-1 cytotoxicity, PNT-1A. Type of experiment: cell-based. The conditions noted are these: normal cell. The procedure:
as §1, §2

Setting [6] is: WST-1, 24 h, read-out: IC50 HT-29 24 h.
Setting [7] is: WST-1, 48 h, read-out: IC50 HT-29 48 h.
The mark [8] stands for this setting: WST-1, 72 h, read-out: IC50 HT-29 72 h.
Where [9] appears, read: WST-1, 72 h, read-out: IC50 MDA-MB-231 72 h.
The mark [10] stands for this setting: WST-1, 72 h, read-out: IC50 HEK-293 72 h.
The mark [11] stands for this setting: WST-1, 48 h, read-out: IC50 HeLa 48 h.
Where [12] appears, read: WST-1, 48 h, read-out: IC50 MDA-MB-231 48 h.
Where [13] appears, read: WST-1, 24 h, mean of three experiments, read-out: IC50 HeLa 24 h.
Setting [14] is: WST-1, 72 h, read-out: IC50 HeLa 72 h.
The mark [15] stands for this setting: WST-1, 24 h, read-out: IC50 HEK-293 24 h.
The mark [16] stands for this setting: WST-1, 48 h, read-out: IC50 HEK-293 48 h.
The mark [17] stands for this setting: WST-1, 24 h, read-out: IC50 PNT-1A 24 h.
Where [18] appears, read: WST-1, 48 h, read-out: IC50 PNT-1A 48 h.
The mark [19] stands for this setting: WST-1, 72 h, read-out: IC50 PNT-1A 72 h.

As usually defined, the IC50 is the concentration at which inhibition is half-maximal. In general, Ki refers to the dissociation constant of the complex between target and ligand, obtained from inhibition or displacement. On to `Cc1ccc(C=NCCc2ccc(S(N)(=O)=O)cc2)cc1` [Compound 4], for which the IC50 in experiment [1] (setting [6]) amounted to 33 ± 2.3 µM; in experiment [1] (setting [7]), 23.7 ± 2.2 µM; in experiment [1] (setting [8]) it was 119 ± 23.2 µM; in experiment [2] (setting [9]), 178 ± 11.2 µM; in experiment [3] (setting [10]), 96.2 ± 12.2 µM. Further, the Ki on hCA IX was 0.123 µM.

For `Cc1ccc(C=Nc2ccc(S(N)(=O)=O)cc2)cc1` [Compound 5], the IC50 in experiment [4] (setting [11]) was determined as 182 ± 12.2 µM; in experiment [2] (setting [12]), 74.7 ± 12.4 µM; in experiment [3] (setting [10]), 170 ± 11.2 µM. Besides, the inhibition constant (Ki) at hCA IX is 0.0237 µM; at hCA XII, 0.0099 µM.

Regarding `O=c1[nH]cc(F)c(=O)[nH]1` [Compound 5-FU, reference compound], the IC50 was 37.8 ± 4.3 µM in experiment [4] (setting [13]); 31.2 ± 2.3 µM in experiment [4] (setting [11]); 14.7 ± 0.6 µM in experiment [4] (setting [14]); 47.3 ± 1.2 µM in experiment [1] (setting [6]); 23.4 ± 2.1 µM in experiment [1] (setting [7]); 19.3 ± 1.2 µM in experiment [1] (setting [8]). The IC50 is 42.6 ± 2.56 µM in experiment [2] (WST-1, 24 h, read-out: IC50 MDA-MB-231 24 h); 37.9 ± 12.3 µM in experiment [2] (setting [12]); 21 ± 4.3 µM in experiment [2] (setting [9]); 44.6 ± 7.2 µM in experiment [3] (setting [15]); 19.8 ± 2.3 µM in experiment [3] (setting [16]); 14.5 ± 3.2 µM in experiment [3] (setting [10]). In addition, the IC50 stood at 23.1 ± 4.55 µM in experiment [5] (setting [17]), 21.2 ± 2.2 µM in experiment [5] (setting [18]) and 17.5 ± 7.6 µM in experiment [5] (setting [19]).

Regarding `Cc1cccc(C=Nc2ccc(S(N)(=O)=O)cc2)c1O` [Compound 3], the IC50 is 36.3 ± 0.2 µM in experiment [4] (setting [13]); 29.8 ± 2.3 µM in experiment [4] (setting [11]); 80.6 ± 12.4 µM in experiment [2] (setting [12]); 96.7 ± 33.4 µM in experiment [2] (setting [9]); 196 ± 14.3 µM in experiment [3] (setting [15]); 37.9 ± 3.6 µM in experiment [3] (setting [10]). For the same molecule, the Ki at hCA IX was 0.465 µM.

`COc1ccc(C=NCCc2ccc(S(N)(=O)=O)cc2)cc1` [Compound 7]: the IC50 in experiment [2] (setting [12]) is 123 ± 12.3 µM; in experiment [2] (setting [9]), 98.2 ± 11.2 µM; in experiment [3] (setting [15]) it was 120 ± 13.8 µM; in experiment [3] (setting [16]), 98.3 ± 11.2 µM; in experiment [3] (setting [10]), 85.4 ± 11.2 µM; in experiment [5] (setting [18]), 190 ± 8.6 µM. Also, the IC50 in experiment [5] (setting [19]) is 130 ± 32.2 µM. Besides, the Ki at hCA IX was 0.231 µM.

On to `Cc1cccc(C=NCCc2ccc(S(N)(=O)=O)cc2)c1O` [Compound 2], for which the IC50 worked out at 27.1 ± 1.3 µM in experiment [4] (setting [13]), 49.6 ± 0.8 µM in experiment [4] (setting [11]), 114 ± 3.44 µM in experiment [3] (setting [15]) and 75.2 ± 5.6 µM in experiment [3] (setting [10]). In addition, the Ki on hCA IX was 0.295 µM.

Turning to `COc1ccc(C=Nc2ccc(S(N)(=O)=O)cc2)cc1` [Compound 6], the IC50 is 198 ± 14.3 µM in experiment [4] (setting [11]); 123 ± 11.1 µM in experiment [4] (setting [14]); 187 ± 23.4 µM in experiment [1] (setting [8]); 100 ± 22.2 µM in experiment [3] (setting [10]); 154 ± 16.5 µM in experiment [5] (setting [17]); 120 ± 11.2 µM in experiment [5] (setting [18]). Also, in experiment [5] (setting [19]), the IC50 came out at 76.4 ± 13.3 µM. Moreover, the Ki on hCA IX was 0.883 µM; on hCA XII, 0.0112 µM.
